From patent US10392367B2, “IRE1 small molecule inhibitors” (QUENTIS THERAPEUTICS, INC., priority 2017, dated 2019)

Legend:
IRE1a [1] = target: T1, IRE1a (Homo sapiens, UniProt O75460); assay: In vitro FRET assay (XBP1 RNA probe cleavage by IRE1a); assay type: biochemical; set-up: purchased SignalChem; details: SignalChem IRE1a protein 2 nM
Experimental: In vitro FRET assay was performed to evaluate the ability of select compounds to inhibit IRE1, the results of which are summarized in Table 3. To perform the in vitro FRET assay, 1× complete assay buffer (CAB; […] DTT, 50 mM sodium citrate pH 7.15, 1 mM magnesium acetate, 0.02% tween 20) was used to dilute SignalChem IRE1a protein to a final concentration of 2 nM. Selected compounds were serially diluted with DMSO in a non-binding black 384-well plate for a total of 15 ul in each well. 2 ul of the serially diluted compound or DMSO control were then added to new wells containing 98 ul of 1×CAB, for a total volume of 100 ul, 10 ul of which were then transferred to wells of a new plate. 5 ul of the diluted IRE1a was then added to each well. 5 ul of a […] XBP1 RNA probe was then added to each well. Fluorescence was then read over 30 minutes in kinetic mode (485/515 nm).
Two RNA probes were used, XBP1 wildtype (SEQ ID NO: 2) which is able to be spliced by active IRE1a or XBP1 mutant (SEQ ID NO: 3) which is unable to be spliced. Each probe contained a 5′ 6-FAM modification and a 3′ IOWA Black FQ modification.

IRE1a [2] = target: T1, IRE1a; assay: IRE1a Endoribonuclease Nanoluciferase Assay (XBP1 luciferase reporter in 293 T cells); assay type: cell-based; details: 293 T cells transfected with XBP1 luciferase reporter plasmid
Experimental: Compounds disclosed herein were assessed for disruption of IRE1 signaling using a IRE1a Endoribonuclease Nanoluciferase Assay. Briefly, 2.5×10^6 293 T cells were seeded in a 10 cm^2 tissue culture plate. About 24 hours later, the cells were transfected with Effectene. In a 15 mL Tube, the following was added: 2 μg XBP1 luciferase reporter plasmid (PGK-Luc2-P2A-XBP1u-Nanoluciferase-PEST); 300 μl EC buffer; and 16 μl Enhancer, followed by incubation at room temp for 5 minutes. Next, 60 μl Effectene (Qiagen 301427) was added, followed by incubation at room temperature for 10 minutes. 2.6 mL cDMEM media was added. Old media was aspirated from the cells, followed by addition of 7 mL fresh media. Full transfection mixture was added dropwise to cells. Cells were incubated for 6 hours, followed by tripsinization, centrifugation and resuspension in 11 mL media. 100 uL of cells were plated per a well in a 96 well plate. A day later, stressors of choice+/− inhibitors were added. To harvest, media was aspirated from cells completely, then 50 uL 1× passive lysis buffer (Promega: E1941) was added per well and put on shaker (300 rpm) for 30 minutes at room temperature. Cells were centrifuged, and 15 uL sample per well was added to a new, opaque white 384 well plate (Corning 3570). 15 uL OneGlo (nanoluciferase kit, Promega N1630) was added. Plates were spun down, placed on shaker (300 rpm) for 10 minutes. Plates were read on luminometer, 1000 ms integration time per well. 15 uL Stop and Glo (nanoluciferase kit) was added. Plates were spun down, placed on shaker (300 rpm) for 10 minutes. Plates were read on luminometer, 1000 ms second integration time per well. Recordings are provided below in Table 4.

T1 sequence (O75460 19-977): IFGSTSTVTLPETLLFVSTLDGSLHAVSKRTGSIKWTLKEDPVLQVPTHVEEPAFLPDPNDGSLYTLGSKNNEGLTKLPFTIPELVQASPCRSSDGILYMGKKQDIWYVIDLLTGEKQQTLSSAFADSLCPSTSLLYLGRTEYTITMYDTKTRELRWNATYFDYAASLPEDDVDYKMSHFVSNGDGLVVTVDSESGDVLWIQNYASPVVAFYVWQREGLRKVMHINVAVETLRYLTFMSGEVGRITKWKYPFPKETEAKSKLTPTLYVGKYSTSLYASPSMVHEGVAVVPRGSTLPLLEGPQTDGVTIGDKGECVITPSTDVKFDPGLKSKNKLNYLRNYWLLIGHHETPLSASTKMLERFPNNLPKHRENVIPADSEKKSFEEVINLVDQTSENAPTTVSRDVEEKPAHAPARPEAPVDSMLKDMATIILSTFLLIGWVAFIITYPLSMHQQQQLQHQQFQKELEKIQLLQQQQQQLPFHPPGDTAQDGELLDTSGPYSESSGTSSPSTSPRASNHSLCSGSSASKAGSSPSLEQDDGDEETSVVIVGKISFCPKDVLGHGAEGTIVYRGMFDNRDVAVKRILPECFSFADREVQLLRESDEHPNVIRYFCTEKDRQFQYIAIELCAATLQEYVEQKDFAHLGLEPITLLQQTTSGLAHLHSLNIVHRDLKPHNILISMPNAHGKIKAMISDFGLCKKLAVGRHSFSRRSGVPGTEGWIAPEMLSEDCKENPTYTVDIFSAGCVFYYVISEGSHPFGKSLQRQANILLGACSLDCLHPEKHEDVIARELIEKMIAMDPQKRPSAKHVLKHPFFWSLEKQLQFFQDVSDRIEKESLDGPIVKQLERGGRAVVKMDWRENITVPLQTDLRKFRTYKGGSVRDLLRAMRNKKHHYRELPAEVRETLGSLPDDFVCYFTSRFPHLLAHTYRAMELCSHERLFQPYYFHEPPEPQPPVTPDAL

| IC50 (IRE1a [1]) [µM] | EC50 (IRE1a [2]) [µM] | Mean EC50 (IRE1a [2]) | Structure (SMILES) |
| --- | --- | --- | --- |
| ≤ 0.005 | > 0.1 |  | CCc1cc(-c2cc(NC(=O)C(CC)c3ccccc3)nn2C)cc2cnc(N[C@H]3CC[C@H](N)CC3)nc12 (some centres unmarked) [Compound 16, N-(5-(2-(((1r,4r)-4-aminocyclohexyl)amino)-8-ethylquinazolin-6-yl)-1-methyl-1H-pyrazol-3-yl)-2-phenylbutanamide] |
| 0.005 to 0.05 |  |  | CCc1cc(-c2cc(NC(=O)[C@@H](O)c3ccccc3)nn2C)cc2cnc(N[C@H]3CC[C@H](N)CC3)nc12 [Compound 15, (S)-N-(5-(2-(((1r,4r)-4-aminocyclohexyl)amino)-8-ethylquinazolin-6-yl)-1-methyl-1H-pyrazol-3-yl)-2-hydroxy-2-phenylacetamide] |
| > 0.1 |  |  | CCc1cc(-c2cc(NC(=O)Cc3cccc(C(F)(F)F)c3)nn2C)cc2cnc(N[C@H]3CC[C@H](N(C)CCOC)CC3)nc12 [Compound 46, N-(5-(8-ethyl-2-(((1r,4r)-4-((2-methoxyethyl)(methyl)amino)cyclohexyl)amino)quinazolin-6-yl)-1-methyl-1H-pyrazol-3-yl)-2-(3-(trifluoromethyl)phenyl)acetamide] |
| ≤ 0.005 | 0.005 to 0.05 |  | CCc1cc(-c2cc(CC(=O)Nc3ccc(OCCCNC)c(C(F)(F)F)c3)nn2C)cc2cnc(N[C@H]3CC[C@H](N)CC3)nc12 [Compound 37, 2-(5-(2-(((1r,4r)-4-aminocyclohexyl)amino)-8-ethylquinazolin-6-yl)-1-methyl-1H-pyrazol-3-yl)-N-(4-(3-(methylamino)propoxy)-3-(trifluoromethyl)phenyl)acetamide] |
| 0.05 to 0.1 | 0.05 to 0.1 |  | CCc1cc(-c2cc(NC(=O)Cc3cc(C(F)(F)F)ccc3C(F)(F)F)nn2C)cc2cnc(N[C@H]3CC[C@H](NC(=O)CN)CC3)nc12 [Compound 44, 2-amino-N-((1r,4r)-4-((6-(3-(2-(2,5-bis(trifluoromethyl)phenyl)acetamido)-1-methyl-1H-pyrazol-5-yl)-8-ethylquinazolin-2-yl)amino)cyclohexyl)acetamide] |
| ≤ 0.005 | 0.05 to 0.1 |  | CCc1cc(-c2cc(NC(=O)Cc3cccc(C(F)(F)F)c3)nn2C)cc2cnc(N[C@H]3CC[C@H](NCCOC)CC3)nc12 [Compound 40, N-(5-(8-ethyl-2-(((1r,4r)-4-((2-methoxyethyl)amino)cyclohexyl)amino)quinazolin-6-yl)-1-methyl-1H-pyrazol-3-yl)-2-(3-(trifluoromethyl)phenyl)acetamide] |
| 0.05 to 0.1 | > 0.1 |  | Cn1nc(NC(=O)Cc2cccc(C(F)(F)F)c2)cc1-c1ccc2nc(N[C@H]3CC[C@H](N)CC3)ncc2c1 [Compound 1, N-(5-(2-(((1r,4r)-4-aminocyclohexyl)amino)quinazolin-6-yl)-1-methyl-1H-pyrazol-3-yl)-2-(3-(trifluoromethyl)phenyl)acetamide] |
| ≤ 0.005 |  | A-B | CCc1cc(-c2cc(NC(=O)Cc3cc(C(F)(F)F)ccc3C(F)(F)F)nn2C)cc2cnc(N[C@H]3CC[C@H](N)CC3)nc12 [Compound 12, N-(5-(2-(((1r,4r)-4-aminocyclohexyl)amino)-8-ethylquinazolin-6-yl)-1-methyl-1H-pyrazol-3-yl)-2-(2,5-bis(trifluoromethyl)phenyl)acetamide] |
| 0.005 to 0.05 | > 0.1 |  | CCc1cc(-c2cc(NC(=O)Cc3cccc(OC(F)(F)F)c3)nn2C)cc2cnc(N[C@H]3CC[C@H](N)CC3)nc12 [Compound 11, N-(5-(2-(((1r,4r)-4-aminocyclohexyl)amino)-8-ethylquinazolin-6-yl)-1-methyl-1H-pyrazol-3-yl)-2-(3-(trifluoromethoxy)phenyl)acetamide] |
| 0.005 to 0.05 |  |  | CCc1cc(-c2cc(NC(=O)Cc3cc(F)cc(C(F)(F)F)c3)nn2C)cc2cnc(N[C@H]3CC[C@H](N)CC3)nc12 [Compound 20, N-(5-(2-(((1r,4r)-4-aminocyclohexyl)amino)-8-ethylquinazolin-6-yl)-1-methyl-1H-pyrazol-3-yl)-2-(3-fluoro-5-(trifluoromethyl)phenyl)acetamide] |
| 0.005 to 0.05 | > 0.1 |  | CCc1cc(-c2cc(NC(=O)Cc3cc(C)cc(F)c3)nn2C)cc2cnc(N[C@H]3CC[C@H](N)CC3)nc12 [Compound 27, N-(5-(2-(((1r,4r)-4-aminocyclohexyl)amino)-8-ethylquinazolin-6-yl)-1-methyl-1H-pyrazol-3-yl)-2-(3-fluoro-5-methylphenyl)acetamide] |
| > 0.1 |  |  | CCc1cc(-c2cc(CC(=O)Nc3cccc(C(F)(F)F)c3)nn2C)cc2cnc(N[C@H]3CC[C@H](N)CC3)nc12 [Compound 23, 2-(5-(2-(((1r,4r)-4-aminocyclohexyl)amino)-8-ethylquinazolin-6-yl)-1-methyl-1H-pyrazol-3-yl)-N-(3-(trifluoromethyl)phenyl)acetamide] |
| 0.005 to 0.05 |  |  | CCc1cc(-c2cc(NC(=O)Cc3cc(C(F)(F)F)cc(C(F)(F)F)c3)nn2C)cc2cnc(N[C@H]3CC[C@H](N)CC3)nc12 [Compound 5, N-(5-(2-(((1r,4r)-4-aminocyclohexyl)amino)-8-ethylquinazolin-6-yl)-1-methyl-1H-pyrazol-3-yl)-2-(3,5-bis(trifluoromethyl)phenyl)acetamide] |
| 0.05 to 0.1 |  |  | CCc1cc(-c2cc(NC(=O)Cc3cc(C(F)(F)F)ccc3C(F)(F)F)nn2C)cc2cnc(N[C@H]3CC[C@](C)(N)CC3)nc12 [Compound 49, N-(5-(2-(((1r,4r)-4-amino-4-methylcyclohexyl)amino)-8-ethylquinazolin-6-yl)-1-methyl-1H-pyrazol-3-yl)-2-(2,5-bis(trifluoromethyl)phenyl)acetamide] |
| > 0.1 |  |  | Cc1c(-c2cc(NC(=O)Cc3cc(C(F)(F)F)ccc3C(F)(F)F)nn2C)ccc2nc(N[C@H]3CC[C@H](N)CC3)ncc12 [Compound 45, N-(5-(2-(((1r,4r)-4-aminocyclohexyl)amino)-5-methylquinazolin-6-yl)-1-methyl-1H-pyrazol-3-yl)-2-(2,5-bis(trifluoromethyl)phenyl)acetamide] |
| 0.05 to 0.1 |  |  | CCc1cc(-c2cc(NC(=O)Nc3cc(C(F)(F)F)cc(C(F)(F)F)c3)nn2C)cc2cnc(N[C@H]3CC[C@H](N)CC3)nc12 [Compound 21, 1-(5-(2-(((1r,4r)-4-aminocyclohexyl)amino)-8-ethylquinazolin-6-yl)-1-methyl-1H-pyrazol-3-yl)-3-(3,5-bis(trifluoromethyl)phenyl)urea] |
| > 0.1 |  |  | CCc1cc(-c2cc(NC(=O)Cc3cccc(C(F)(F)F)c3)nn2C)cc2cnc(N[C@H]3CC[C@H](O)CC3)nc12 [Compound 3, N-(5-(8-ethyl-2-(((1r,4r)-4-hydroxycyclohexyl)amino)quinazolin-6-yl)-1-methyl-1H-pyrazol-3-yl)-2-(3-(trifluoromethyl)phenyl)acetamide] |
| > 0.1 |  |  | CCc1cc(-c2cc(NC(=O)[C@@H](N)c3ccccc3)nn2C)cc2cnc(N[C@H]3CC[C@H](N)CC3)nc12 [Compound 24, (S)-2-amino-N-(5-(2-(((1r,4r)-4-aminocyclohexyl)amino)-8-ethylquinazolin-6-yl)-1-methyl-1H-pyrazol-3-yl)-2-phenylacetamide] |
| 0.05 to 0.1 |  |  | CCc1cc(-c2cc(NC(=O)Cc3cc(C(F)(F)F)ccc3C(F)(F)F)nn2C)cc2cnc(N[C@H]3CC[C@@](C)(N)CC3)nc12 [Compound 50, N-(5-(2-(((1s,4s)-4-amino-4-methylcyclohexyl)amino)-8-ethylquinazolin-6-yl)-1-methyl-1H-pyrazol-3-yl)-2-(2,5-bis(trifluoromethyl)phenyl)acetamide] |
| > 0.1 |  |  | CCc1cc(-c2cc(NC(=O)[C@H](N)c3ccccc3)nn2C)cc2cnc(N[C@H]3CC[C@H](N)CC3)nc12 [Compound 22, (R)-2-amino-N-(5-(2-(((1r,4r)-4-aminocyclohexyl)amino)-8-ethylquinazolin-6-yl)-1-methyl-1H-pyrazol-3-yl)-2-phenylacetamide] |
| 0.005 to 0.05 |  |  | CCc1cc(-c2cc(NC(=O)Cc3cccc(C#N)c3)nn2C)cc2cnc(N[C@H]3CC[C@H](N)CC3)nc12 [Compound 17, N-(5-(2-(((1r,4r)-4-aminocyclohexyl)amino)-8-ethylquinazolin-6-yl)-1-methyl-1H-pyrazol-3-yl)-2-(3-cyanophenyl)acetamide] |
